Here are results for seven compounds from publication PMC11013252, “Exploration of the Antibacterial and Anti-Inflammatory Activity of a Novel Antimicrobial Peptide Brevinin-1BW” (Molecules, 2024).

Experiment [1] deals with E. hormaechei (ATCC700323). Description: microbe, parasite or virus in culture. It is filed as cell-based, Enterobacter hormaechei. The note with it: Enterobacter hormaechei; E. hormaechei (ATCC700323); CLSI two-fold dilution, MH medium, 1 × 10^6 CFU/mL, 37 °C, 18 h, OD600; 9 replicates of 3 independent experiments; read-out: MIC. How it is done: (§1) The minimum inhibitory concentration (MIC) of the Brevinin-1BW was measured in 96-well microtiter plates according to the Clinical and Laboratory Standards Institute (CLSI). The activated strains were treated with Mueller Hinton Agar (MHA) solid medium. Single colonies were picked and expanded to the logarithmic growth phase, and the solution was diluted to 2 × 10^6 CFU/mL using the McFarland turbidity standard. The MIC was determined with the two-fold dilution method. Briefly, 50 μL of Mueller Hinton (MH) medium was added to a 96-well plate in advance. Then, 50 μL of AMP solution was added to the first well, and 50 μL was pipetted into the next well after mixing using a row gun, while 50 μL was discarded from the last well. Final concentrations of Brevinin-1BW were 100, 50, 25, 12.5, 6.25, and 3.125 μg/mL. A 50 μL volume of the diluted bacterial solution was added, and the final concentration of the bacterial solution was 1 × 10^6 CFU/mL. This was then placed into a 37 °C incubator for 18 h until the next day to observe the degree of turbidity of the 96-well plate and measure the absorbance of the wells at 600 nm with a multifunctional microplate reader (SpectraMax iD5, Molecular Devices, Sunnyvale, CA, USA). The absence of turbidity and the measured concentration of absorbance being less than the opposing group was taken as the MIC. The positive control used ampicillin at the same final concentration as Brevinin-1BW, the negative control used 50 μL of MH medium mixed with 50 μL of 2 × 10^6 CFU/mL bacterial solution, and the blank contained only 100 μL of MH medium. Three replicate wells were set up for each experiment, and each experiment was repeated three times. The MIC and all concentrations above the MIC of bacterial solution coated on MHA solid medium were placed into 37 °C incubator incubation for 18 h. The lowest concentration resulting in no colony growth was taken as the minimum bactericidal concentration (MBC).

The subject of experiment [2] is P. aeruginosa (ATCC27853). Description: microbe, parasite or virus in culture. It is filed as cell-based, Pseudomonas aeruginosa. To be noted: Pseudomonas aeruginosa; P. aeruginosa (ATCC27853); CLSI two-fold dilution, MH medium, 1 × 10^6 CFU/mL, 37 °C, 18 h, OD600; 9 replicates of 3 independent experiments; read-out: MIC. As to the method: as §1
For experiment [3], the system named is S. saprophytics (ATCCBAA750). As to the kind of experiment: microbe, parasite or virus in culture. The class given is cell-based, Staphylococcus saprophyticus. To be noted: Staphylococcus saprophyticus; S. saprophytics (ATCCBAA750); CLSI two-fold dilution, MH medium, 1 × 10^6 CFU/mL, 37 °C, 18 h, OD600; 9 replicates of 3 independent experiments; read-out: MIC. As to the method: as §1

The test system of the next experiment is E. coli (MDR ATCC35218). As to the kind of experiment: microbe, parasite or virus in culture. The note with it: Escherichia coli; E. coli (MDR ATCC35218); CLSI two-fold dilution, MH medium, 1 × 10^6 CFU/mL, 37 °C, 18 h, OD600; 9 replicates of 3 independent experiments; read-out: MIC. The class given is cell-based, Escherichia coli. As to the method:
as §1

Experiment [4] concerns S. epidermidis (CI 1607BL1D39). Description: microbe, parasite or virus in culture. The class given is cell-based, Staphylococcus epidermidis. The note with it: Staphylococcus epidermidis; S. epidermidis (CI 1607BL1D39), clinical isolate; CLSI two-fold dilution, MH medium, 1 × 10^6 CFU/mL, 37 °C, 18 h, OD600; 9 replicates of 3 independent experiments; read-out: MIC. As to the method:
as §1

Experiment [5] has as its system S. haemolyticus (CI 1607BLD590). As to the kind of experiment: microbe, parasite or virus in culture. It is filed as cell-based, Staphylococcus haemolyticus. To be noted: Staphylococcus haemolyticus; S. haemolyticus (CI 1607BLD590), clinical isolate; CLSI two-fold dilution, MH medium, 1 × 10^6 CFU/mL, 37 °C, 18 h, OD600; 9 replicates of 3 independent experiments; read-out: MIC. As to the method:
as §1

For a further experiment, the system named is E. coli (ATCC25922). Description: microbe, parasite or virus in culture. The note with it: Escherichia coli; E. coli (ATCC25922); CLSI two-fold dilution, MH medium, 1 × 10^6 CFU/mL, 37 °C, 18 h, OD600; 9 replicates of 3 independent experiments; read-out: MIC. It is filed as cell-based. As to the method:
as §1

The next experiment deals with E. faecalis (ATCC29212). As to the kind of experiment: microbe, parasite or virus in culture. The class given is cell-based, Enterococcus faecalis. To be noted: Enterococcus faecalis; E. faecalis (ATCC29212); CLSI two-fold dilution, MH medium, 1 × 10^6 CFU/mL, 37 °C, 18 h, OD600; 9 replicates of 3 independent experiments; read-out: MIC. As to the method:
as §1

The test system of experiment [6] is C. koseri (CI 1611SED223). Description: microbe, parasite or virus in culture. It is filed as cell-based, Citrobacter koseri. To be noted: Citrobacter koseri; C. koseri (CI 1611SED223), clinical isolate; CLSI two-fold dilution, MH medium, 1 × 10^6 CFU/mL, 37 °C, 18 h, OD600; 9 replicates of 3 independent experiments; read-out: MIC. As to the method: as §1
The test system of experiment [7] is K. pneumoniae (ATCC700603). As to the kind of experiment: microbe, parasite or virus in culture. The class given is cell-based, Klebsiella pneumoniae. The note with it: Klebsiella pneumoniae; K. pneumoniae (ATCC700603); CLSI two-fold dilution, MH medium, 1 × 10^6 CFU/mL, 37 °C, 18 h, OD600; 9 replicates of 3 independent experiments; read-out: MIC. How it is done:
as §1

Another experiment has as its system S. aureus (ATCC25923). Description: microbe, parasite or virus in culture. It is filed as cell-based, Staphylococcus aureus. The note with it: Staphylococcus aureus; S. aureus (ATCC25923); CLSI two-fold dilution, MH medium, 1 × 10^6 CFU/mL, 37 °C, 18 h, OD600; 9 replicates of 3 independent experiments; read-out: MIC. How it is done: as §1
In experiment [8] the test system is S. aureus (MDR ATCC29213). Description: microbe, parasite or virus in culture. It is filed as cell-based, Staphylococcus aureus. The note with it: Staphylococcus aureus; S. aureus (MDR ATCC29213); CLSI two-fold dilution, MH medium, 1 × 10^6 CFU/mL, 37 °C, 18 h, OD600; 9 replicates of 3 independent experiments; read-out: MIC. As to the method:
as §1

Another experiment has as its system S. aureus. The note with it: ref [44],[45],[46],[47]; cited from earlier work. From the text: Table 5 Comparison of MICs of Brevinin-1BW and related AMPs congeners against specific microorganisms. | column: MIC (µM) / S. aureus
The next experiment relates to MRSA/MDR S. aureus. The note with it: ref [44],[45],[46],[47]; cited from earlier work. From the text:
Table 5 Comparison of MICs of Brevinin-1BW and related AMPs congeners against specific microorganisms. | column: MIC (µM) / MRSA/MDR S. aureus

For a further experiment, the system named is E. faecalis. To be noted: ref [44],[45],[46],[47]; cited from earlier work. From the text:
Table 5 Comparison of MICs of Brevinin-1BW and related AMPs congeners against specific microorganisms. | column: MIC (µM) / E. faecalis

≈ marks a conversion by molar mass, not a printed value. Positions of bridges follow the written chain, without caps; N, C: chain ends. No end group written: not given here.

For `CC1(C)S[C@@H]2[C@H](NC(=O)[C@H](N)c3ccccc3)C(=O)N2[C@H]1C(=O)O` [Ampicillin, reference compound], the MIC in experiment [1] is more than 100 µg/mL; in experiment [2] it was more than 100 µg/mL; in experiment [3], 3.12 µg/mL (≈ 8.94 µM); in the experiment on E. coli (MDR ATCC35218), more than 100 µg/mL; in experiment [4] it was 3.12 µg/mL (≈ 8.94 µM); in [5] it was more than 100 µg/mL. Moreover, the MIC in the experiment with E. coli (ATCC25922) is 100 µg/mL (≈ 286 µM); in the experiment with E. faecalis (ATCC29212), 3.12 µg/mL (≈ 8.94 µM); in experiment [6] it was more than 100 µg/mL; in experiment [7], more than 100 µg/mL; in the experiment on S. aureus (ATCC25923), 3.12 µg/mL (≈ 8.94 µM); in [8], more than 100 µg/mL.

Consider “FLGALFKVASKLVPAAICSISKKC (disulfide 18-24 (inferred)) [Brevinin-1GHd, related Brevinin-1 family AMP from publications]”, for which the MIC in the experiment on S. aureus was 2 µM; with MRSA/MDR S. aureus it was 4 µM.

With “FLGAVLKVAGKLVPAAICKISKKC (disulfide 18-24 (inferred)) [Brevinin-1GHa, related Brevinin-1 family AMP from publications]”, the MIC with S. aureus was 2 µM; with E. faecalis, 8 µM; with MRSA/MDR S. aureus, 4 µM.

As to “FLGSIVGALASALPSLISKIRN [Brevinin1TSa, related Brevinin-1 family AMP from publications]”, the figures for the MIC in the experiment with S. aureus, in the experiment with E. faecalis and with MRSA/MDR S. aureus were 25 µM, 50 µM and 25 µM, respectively.

Take “FLPAVIRVAANVLPTVFCAISKKC (disulfide 18-24 (inferred)) [Brevinin-1JDa, related Brevinin-1 family AMP from publications]”: the MIC in the experiment with S. aureus was 6 µM; in the experiment on MRSA/MDR S. aureus, 13 µM.

On to “FLPAVLRVAAKVVPTVFCLISKKC (disulfide 18-24 (inferred)) [Brevinin-1JDc, related Brevinin-1 family AMP from publications]”, for which the MIC in the experiment on S. aureus is 6 µM; in the experiment on MRSA/MDR S. aureus, 3 µM.

Turning to “FLPGVLRLVTKVGPAVVCAITRNC (disulfide 18-24 (inferred)) [Brevinin-1ISa, related Brevinin-1 family AMP from publications]”, the MIC with S. aureus and in the experiment with MRSA/MDR S. aureus was 3.1 µM throughout.
